The source of these data is patent US20200046703A1, “COMPOSITIONS AND METHODS FOR TREATMENT OF THE SIDE-EFFECTS ASSOCIATED WITH ADMINISTRATION OF THERAPEUTIC AGENTS” (ASYMMETRIC THERAPEUTICS, LLC, priority 2018, published 2020).

“And” between values parts separate entries of the source, which are not always exact repeats. Identical values can stand only once.

One data set relates to confluent HPEK cells. Kind of data set: Confluent HPEK cell viability with/without 5-FU. The format is cell-based, human. To be noted: for relative cell viability (AVG): 120 hours; for Relative Protection against 5-FU toxicity / Relative Growth in the presence of 5-FU: HPEK confluent cells; for Relative Protection against 5-FU toxicity: fraction of viability loss prevented; for Relative Growth in the presence of 5-FU: viability with 5-FU divided by viability without 5-FU. On the procedure:
(§1) Oxypurinol and allopurinol concentrations of 0.3 mM, 1.0 mM, and 3.0 mM, which are ten times higher than those used in the first set of experiments, were tested. An adenine concentration of 0.3 mM, which was the higher concentration used in the first set of experiments, was tested. The relative viability of the cells was determined after 120 hours.

The next data set has as its system confluent NHEK cells. Kind of data set: Confluent NHEK cell viability with/without 5-FU. Format: cell-based, human. To be noted: for relative cell viability (AVG): 120 hours; for Relative Growth in the presence of 5-FU / Relative Protection against 5-FU toxicity: NHEK; for Relative Protection against 5-FU toxicity: fraction of viability loss prevented. On the procedure:
(§2) In yet another set of experiments, the results of which are shown in Table 4, confluent NHEK cells were exposed to the clinically-relevant dose of 10 μM of 5-FU and different concentrations of sodium hydroxide, oxypurinol, or allopurinol using standard tissue culture methods and incubated at 37° C. Sodium hydroxide concentrations of 1 mM, 2 mM, 3 mM, and 4 mM were tested. Oxypurinol and allopurinol concentrations of 0.1 mM, 0.3 mM, 1.0 mM, and 3.0 mM were tested, both in the presence and in the absence of 10 μM of 5-FU. The relative viability of the cells was determined after 120 hours. The sodium hydroxide trials were only performed to serve as a control.

Data set [1] relates to mucositis toxicity of 5-FU. To be noted: maximally-tolerated oral dose of 800 mg/day; 5 μM of 5-FU; cited from earlier work.
In a further data set the test system is hand-foot syndrome. To be noted: allopurinol at 3%, topical; cited from earlier work.
Data set [2] in a line: Proliferating HGEP cell viability with/without 5-FU. Format: cell-based, human. To be noted: human, proliferating HGEP cells; 10 μM of 5-FU; read-out: viability compared to a control system without 5-FU. The protocol: (§3) In one set of experiments, the results of which are shown in Table 1, proliferating HGEP cells, commonly used to assess oral mucosal toxicity, were exposed to the clinically-relevant dose of 10 μM of 5-FU and different concentrations of oxypurinol, either alone or with different concentrations of adenine or uracil, using standard tissue culture methods and incubated at 37° C. Oxypurinol concentrations of 0.03 mM, 0.1 mM, and 0.3 mM were tested. Adenine and uracil concentrations of 0.1 mM and 0.3 mM were tested. The relative viability of the cells was determined after 120 hours.

A further data set deals with proliferating HGEP cells. The data set is described as above. The format is cell-based, human. To be noted: 5-FU 10 μM alone; relative to control; 120 hours. On the procedure:
as §3

Data set [3] can be described thus: Proliferating HPEK cell viability with/without 5-FU. The format is cell-based, human. To be noted: human, proliferating HPEK cells; 10 μM of 5-FU; read-out: viability compared to a control system without 5-FU. The protocol: (§4) In another set of experiments, the results of which are shown in Table 2, proliferating HPEK cells, commonly used to assess skin tissue toxicity, were exposed to the clinically-relevant dose of 10 μM of 5-FU and different concentrations of oxypurinol, either alone or with different concentrations of adenine or uracil, using standard tissue culture methods and incubated at 37° C. Oxypurinol concentrations of 0.03 mM, 0.1 mM, and 0.3 mM were tested. Adenine and uracil concentrations of 0.1 mM and 0.3 mM were tested. The relative viability of the cells was determined after 120 hours.

The subject of the next data set is proliferating HPEK cells. Described as above. Format: cell-based, human. To be noted: 5-FU 10 μM alone; relative to control; 120 hours. The protocol: as §4
Data set [4] is described as follows: Confluent HPEK cell viability with/without 5-FU. Format: cell-based, human. To be noted: human, confluent HPEK cells; 10 μM of 5-FU; read-out: viability compared to a control system without 5-FU. On the procedure: as §1
Data set [5] can be described thus: Confluent NHEK cell viability with/without 5-FU. To be noted: human, confluent NHEK cells; 10 μM of 5-FU; read-out: viability compared to a control system without 5-FU. Format: cell-based, human. On the procedure: as §2
Setting [6] is: 5-FU 10 μM alone, relative to control.

For `Oc1ncnc2[nH]ncc12` [Allopurinol, allopurinol], the “relative cell viability (AVG)” value is given as 1.1870 in the data set with confluent HPEK cells (0.3 mM, no 5-FU); 0.7303 in the data set with confluent HPEK cells (0.3 mM, with 5-FU 10 μM); 1.2411 with confluent HPEK cells (1.0 mM, no 5-FU); 0.7748 in the data set with confluent HPEK cells (1.0 mM, with 5-FU 10 μM); 1.0410 in the data set on confluent HPEK cells (3.0 mM, no 5-FU); 0.7528 with confluent HPEK cells (3.0 mM, with 5-FU 10 μM). In addition, the “relative cell viability (AVG)” value in the data set on confluent NHEK cells (0.1 mM, no 5-FU) was 1.0426; in the data set on confluent NHEK cells (0.1 mM, with 5-FU 10 μM), 0.6303; in the data set with confluent NHEK cells (0.1 mM, with 5-FU 10 μM, listed as allopurinol), 0.63; with confluent NHEK cells (0.3 mM, no 5-FU), 1.1285; with confluent NHEK cells (0.3 mM, with 5-FU 10 μM), 0.5100; in the data set with confluent NHEK cells (0.3 mM, with 5-FU 10 μM, listed as allopurinol) it was 0.51. Also, the “relative cell viability (AVG)” value was determined as 1.1137 in the data set with confluent NHEK cells (1.0 mM, no 5-FU); 0.4370 in the data set with confluent NHEK cells (1.0 mM, with 5-FU 10 μM); 0.44 in the data set with confluent NHEK cells (1.0 mM, with 5-FU 10 μM, listed as allopurinol); 1.0640 in the data set on confluent NHEK cells (3.0 mM, no 5-FU); 0.4348 in the data set on confluent NHEK cells (3.0 mM, with 5-FU 10 μM); 0.44 with confluent NHEK cells (3.0 mM, with 5-FU 10 μM, listed as allopurinol). In addition, the “Relative Protection against 5-FU toxicity” value was found to be 0.2464 in the data set with confluent HPEK cells (0.3 mM); 0.3709 in the data set with confluent HPEK cells (1.0 mM); 0.3092 in the data set on confluent HPEK cells (3.0 mM); 0.3664 with confluent NHEK cells (0.1 mM); 0.1603 in the data set with confluent NHEK cells (0.3 mM); 0.0352 with confluent NHEK cells (1.0 mM). Also, the “Relative Protection against 5-FU toxicity” value in the data set on confluent NHEK cells (3.0 mM) turned out to be 0.0314. Moreover, the “Relative Growth in the presence of 5-FU” value in the data set on confluent HPEK cells (0.3 mM) is given as 0.6152; with confluent HPEK cells (1.0 mM) it was 0.6243; with confluent HPEK cells (3.0 mM), 0.7231; with confluent NHEK cells (3.0 mM, FIG. 2), “less than 41%”; in the data set with confluent NHEK cells (0.1 mM, viability with 5-FU divided by viability without 5-FU) it was 0.6045; in the data set on confluent NHEK cells (0.3 mM, viability with 5-FU divided by viability without 5-FU), 0.4519. The “Relative Growth in the presence of 5-FU” value in the data set with confluent NHEK cells (1.0 mM, viability with 5-FU divided by viability without 5-FU) is recorded as 0.3924; in the data set with confluent NHEK cells (3.0 mM, viability with 5-FU divided by viability without 5-FU) it was 0.4086. Besides, the results for the “effect on cell viability in the presence of 5-FU” value in the data set with confluent HPEK cells (concentration range of 0.3 mM to 3.0 mM) and in the data set with confluent NHEK cells (0.1 mM to 3.0 mM) were “protective effect” and “protective effect for confluent NHEK cells that was generally less than oxypurinol”, respectively. For the same compound, the “effect on cell viability in the absence of 5-FU” value in the data set with confluent NHEK cells (range of 0.1 mM to 3.0 mM) is recorded as “small positive effect”. Further, in [1], the “prevention of mucositis toxicity of 5-FU” value was “does not prevent the mucositis toxicity”. For the same compound, the “therapeutic benefit against HFS” value in the data set with hand-foot syndrome is on record as “did not achieve an adequate therapeutic benefit”.

What is called viability is a read-out of living cells in per cent, often relative to untreated cells. For `O=c1[nH]cc(F)c(=O)[nH]1` [5-FU, 5-fluorouracil, reference compound], the viability at 120 h, 10 µM in [2] came to 62.2%; in [3], 65.1%; in data set [4], 65.1%; in [5], 41.6%. For the same compound, the “relative cell viability (AVG)” value with proliferating HGEP cells is 0.6217; in the data set with proliferating HPEK cells it was 0.6507; in the data set on confluent HPEK cells (setting [6]), 0.64 and 0.6421; in the data set with confluent NHEK cells (setting [6]) it was 0.42 and 0.4165.
